Values joined by “and” are separate entries in the source; they are usually repeats but may differ in a detail not shown here. Identical values can stand only once. “Also recorded” adds a separate entry of the source. Like-named read-outs stand apart in the source and are kept apart here.
What was measured:
[1] = General tolerability by route of administration; type: in vivo
rat leg = experiment: Tolerability by volume increase of rat leg versus commercial injectable preparations; type: in vivo; conditions: FIG. 1
From the text: This type of preparation was estimated also in comparison with commercially available injectable preparations according to the method of volume increase of rat leg and results are shown in FIG. 1 of the drawings.

[2] = Extent of availability after different routes, intravenous administration as reference; type: in vivo, rabbit
Protocol: (§1) The following pharmacological experimentation was carried out in order to estimate the comparative absorption and bioavailability through various administration routes in rabbits of Alclofenac acid and its lysine salt.

[3] = Stability and hygroscopicity; type: physicochemical
[4] = Pharmacokinetics from plasma levels after oral, rectal and intramuscular administration in rabbits; type: in vivo, rabbit
Protocol: as §1

pH of aqueous solution = type: physicochemical
[5] = system: rabbit dorsal long muscle; experiment: Local tolerability after intramuscular injection, muscle removed at 24 hours, irritation by arbitrary scores; type: in vivo; parameters: scale not given here
Protocol: Such a tolerability was estimated after injection of equivalent solutions of the various preparations, effected in the rabbit dorsal long muscle, removing muscle 24 hours after injection and estimating the degree of induced irritation through arbitrary scores.

[6] = Analgesic, antipyretic and antiinflammatory activity; type: in vivo; conditions: versus the starting acid
[7] = Pharmacokinetics after i.v. injection in rabbits; type: in vivo, rabbit; conditions: i.v. 90 mg/kg (as acid)
Protocol: as §1

Solubility = type: physicochemical; conditions: in words, solvent as stated
[8] = INTRAMUSCOLAR 80 mg/kg, ± E.S.M.
[9] = P.OS 90 mg/kg, ± E.S.M., listed as Lysine Salt
[10] = P.OS 90 mg/kg, ± E.S.M., listed as Lysine Salt, 90 mg/kg
[11] = RECTAL 100 mg/kg, ± E.S.M., listed as Lysine Salt
[12] = RECTAL 100 mg/kg, ± E.S.M., listed as Lysine Salt, 100 mg/kg
[13] = rabbit, plasma, im, 80 mg/kg, INTRAMUSCOLAR 80 mg/kg, ± E.S.M.
[14] = 100 mg/ml (as acid), 0.5 ml injected
[15] = 131 mg/ml (as acid), 0.25 ml injected
[16] = individual, in order Rabbit I, II, III, IV, 90 mg/kg

Compound: C=CCOc1ccc(CC(=O)O)cc1Cl [Alclofenac-Lysine, lysine 4-allyloxy-3-chlorophenylacetate]
- tolerability on injection ([1]; intravenous or intramuscular): well tolerated after either intravenous or intramuscular administration
- tolerability per os ([1]; oral): better tolerated per os; also recorded: better tolerance
- tolerability versus Mervan (rat leg): better more tolerated than a commercially available preparation
- % Availability (AUC o → 2h) ([2]; I.V. 90 mg/kg, 0-2 h, reference): 100%
- % Availability (AUC o → 4h) ([2]; I.V. 90 mg/kg, 0-4 h, reference): 100%
- % Availability (practical AUC) ([2]; I.V. 90 mg/kg, reference): 100%
- % Availability (theoretical AUC) ([2]; I.V. 90 mg/kg, reference): 100%
- bioavailability at 2 h ([2]; rabbit, plasma, 100 mg/kg, Rectal 100 mg/kg, 0-2 h, i.v. as reference, read-out: % Availability (AUC o → 2h)): 95.7%
- bioavailability ([2]; rabbit, plasma, 100 mg/kg, Rectal 100 mg/kg, i.v. as reference, read-out: % Availability (practical AUC)): 100%
- bioavailability ([2]; rabbit, plasma, 100 mg/kg, Rectal 100 mg/kg, i.v. as reference, read-out: % Availability (theoretical AUC)): 89.2%
- bioavailability ([2]; rabbit, plasma, im, 80 mg/kg, I.M. 80 mg/kg, i.v. as reference, read-out: % Availability (practical AUC)): 95.4%
- bioavailability ([2]; rabbit, plasma, im, 80 mg/kg, I.M. 80 mg/kg, i.v. as reference, read-out: % Availability (theoretical AUC)): 155%
- bioavailability at 4 h ([2]; rabbit, plasma, po, 90 mg/kg, P.O. 90 mg/kg, 0-4 h, i.v. as reference, read-out: % Availability (AUC o → 4h)): 58.1%
- bioavailability ([2]; rabbit, plasma, po, 90 mg/kg, P.O. 90 mg/kg, i.v. as reference, read-out: % Availability (practical AUC)): 88.5%
- bioavailability ([2]; rabbit, plasma, po, 90 mg/kg, P.O. 90 mg/kg, i.v. as reference, read-out: % Availability (theoretical AUC)): 82.7%
- Stability of the solution ([3]; in words, listed as compound (1)): perfectly stable
- Hygroscopicity ([3]; isolated solid): non-hygroscopic
- Ka [4, 8]: 0.0131 ± 0.0031 min⁻¹
- t1/2α [4, 8]: 1 ± 0.183 h
- Ka [4, 9]: 0.0174 ± 0.0047 min⁻¹
- t1/2α [4, 9]: 0.616667 ± 0.13333 h
- Cmax [4, 10]: 454.5 ± 152.2 µg/mL
- Kel [4, 10]: 0.0023 ± 0.0005 min⁻¹
- Tmax [4, 10]: 2.18 ± 0.467 h
- Vdβ [4, 10]: 0.301 ± 0.050 L/kg
- t1/2β [4, 10]: 6.28 ± 1.53 h
- Ka [4, 11]: 0.132 ± 0.032 min⁻¹
- t1/2α [4, 11]: 0.13 ± 0.05 h
- CL [4, 12]: 0.55 ± 0.03 mL/kg
- Cmax [4, 12]: 473.7 ± 24.1 µg/mL
- Kel [4, 12]: 0.0026 ± 0.0004 min⁻¹
- Tmax [4, 12]: 0.65 ± 0.183 h
- Vdβ [4, 12]: 0.248 ± 0.072 L/kg
- t1/2β [4, 12]: 4.47 ± 1.18 h
- intramuscular absorption velocity, in words ([4]; intramuscular, versus per os): may be compared with that per os
- intramuscular blood levels, in words ([4]; intramuscular, versus per os): instantaneous and sustained blood levels are lower
- absorption velocity ([4]; oral and rectal route): higher absorption velocity even through the oral and rectal route
- absorption, in words ([4]; oral and rectal route, rabbits, listed as Lysine Salt): absorbed faster and to a higher extent in comparison with the acidic substance
- CL/F [4, 13]: 0.67 ± 0.06 mL/min/kg
- k el [4, 13]: 1.17e-05 s⁻¹
- Cmax ([4]; rabbit, plasma, im, 80 mg/kg, INTRAMUSCOLAR 80 mg/kg, ± E.S.M., read-out: Cmax): 144 ± 30 µg/mL
- Vd/F ([4]; rabbit, plasma, im, 80 mg/kg, INTRAMUSCOLAR 80 mg/kg, ± E.S.M., read-out: Vdβ): 0.607 ± 0.09 L/kg
- half-life ([4]; rabbit, plasma, im, 80 mg/kg, INTRAMUSCOLAR 80 mg/kg, ± E.S.M., read-out: t1/2β): 23.4 ± 6.3 h
- Tmax ([4]; rabbit, plasma, im, 80 mg/kg, INTRAMUSCOLAR 80 mg/kg, ± E.S.M., read-out: tmax (converted)): 4.62 h
- pH value of the 10% aqueous solution (pH of aqueous solution; 10% aqueous solution): 7.7
- pH of 25% parts/volume aqueous solution (pH of aqueous solution; 25% parts/volume, specification): 7.4-7.8
- SCORES at 24 hours, Average [5, 14]: 2.3
- SCORES at 24 hours, Average [5, 15]: 2.6
- SCORES at 24 hours, individual [5, 14]: 2 (2×) and 3
- SCORES at 24 hours, individual [5, 15]: 2 and 3 and 4 (2×) and 0
- analgesic, antipyretic and antiinflammatory properties [6]: equal or even superior to those of the starting acid
- A ([7]; MEAN ± S.E.M. of 4 rabbits): 165.7 ± 16.6 µg/mL
- B ([7]; MEAN ± S.E.M. of 4 rabbits): 293.5 ± 14.2 µg/mL
- K12 ([7]; MEAN ± S.E.M. of 4 rabbits): 0.027 ± 0.003 min⁻¹
- K21 ([7]; MEAN ± S.E.M. of 4 rabbits): 0.053 ± 0.009 min⁻¹
- α ([7]; MEAN ± S.E.M. of 4 rabbits): 0.082 ± 0.011 min⁻¹
- A [7, 16]: 170.51 µg/mL and 151.04 µg/mL and 209.59 µg/mL and 131.86 µg/mL
- B [7, 16]: 269.19 µg/mL and 324.95 µg/mL and 269.89 µg/mL and 310.16 µg/mL
- CL [7, 16]: 0.56 mL/min/kg and 0.63 mL/min/kg and 0.36 mL/min/kg and 0.74 mL/min/kg
- K12 [7, 16]: 0.030 min⁻¹ and 0.034 min⁻¹ and 0.028 min⁻¹ and 0.018 min⁻¹
- K21 [7, 16]: 0.051 min⁻¹ and 0.078 min⁻¹ and 0.038 min⁻¹ and 0.047 min⁻¹
- Kel [7, 16]: 0.0033 min⁻¹ and 0.0019 min⁻¹ and 0.0036 min⁻¹
- Vdβ [7, 16]: 0.274 L/kg and 0.329 L/kg and 0.285 L/kg
- t1/2α [7, 16]: 6 min and 10.5 min (2×)
- t1/2β [7, 16]: 6.8 h and 5.02 h and 10.5 h and 4.43 h
- α [7, 16]: 0.083 min⁻¹ and 0.113 min⁻¹ and 0.067 min⁻¹ and 0.066 min⁻¹
- β [7, 16]: 0.0017 min⁻¹ and 0.0023 min⁻¹ and 0.0011 min⁻¹ and 0.0026 min⁻¹
- k el ([7]; rabbit, in vivo, iv, 90 mg/kg, MEAN ± S.E.M. of 4 rabbits, read-out: β (converted)): 3.17e-05 s⁻¹
- clearance ([7]; rabbit, plasma, iv, 90 mg/kg, MEAN ± S.E.M. of 4 rabbits): 0.57 ± 0.08 mL/min/kg
- k el ([7]; rabbit, plasma, iv, 90 mg/kg, MEAN ± S.E.M. of 4 rabbits, read-out: Kel (converted)): 4.83e-05 s⁻¹
- Vd ([7]; rabbit, plasma, iv, 90 mg/kg, MEAN ± S.E.M. of 4 rabbits, read-out: Vdβ): 0.304 ± 0.015 L/kg
- half-life ([7]; rabbit, plasma, iv, 90 mg/kg, MEAN ± S.E.M. of 4 rabbits, read-out: t1/2α): 0.15 ± 0.0167 h
- half-life ([7]; rabbit, plasma, iv, 90 mg/kg, MEAN ± S.E.M. of 4 rabbits, read-out: t1/2β): 6.68 ± 1.35 h
- Vd ([7]; rabbit, plasma, iv, 90 mg/kg, MEAN ± S.E.M. of 4 rabbits, read-out: √1): 0.196 ± 0.005 L/kg
- Vd ([7]; rabbit, plasma, iv, 90 mg/kg, MEAN ± S.E.M. of 4 rabbits, read-out: √2): 0.392 ± 0.06 L/kg
- k el ([7]; rabbit, plasma, iv, 90 mg/kg, individual, in order Rabbit I, II, III, IV, read-out: Kel (converted)): 4.5e-05 s⁻¹
- Vd ([7]; rabbit, plasma, iv, 90 mg/kg, individual, in order Rabbit I, II, III, IV, read-out: Vdβ): 0.33 L/kg
- half-life ([7]; rabbit, plasma, iv, 90 mg/kg, individual, in order Rabbit I, II, III, IV, read-out: t1/2α): 0.142 h
- Vd ([7]; rabbit, plasma, iv, 90 mg/kg, individual, in order Rabbit I, II, III, IV, read-out: √1): 0.205 L/kg
- Solubility (Solubility): soluble in biological fluids; also recorded: extremely soluble in water and alcohols; also recorded: insoluble in acetone
- Solubility (Solubility; listed as compound (1)): very soluble in water and alcohols; also recorded: insoluble in acetone
